The record followed here is patent US20220409747A1, “FIBROBLAST ACTIVATION PROTEIN (FAP)-TARGETED IMAGING AND THERAPY OF CANCERS AND OTHER FIBROTIC AND INFLAMMATORY DISEASES” (Purdue Research Foundation, priority 2019, published 2022).

SMILES strings stand for the structures.

The target of experiment [1] is T1, FAP5-expressing HT1080-FAP cells (human FAP-transfected) (Homo sapiens, UniProt Q12884).
T1 construct: expressed in transfected cells; host or cells: HT1080
T1 sequence (Q12884 1-760): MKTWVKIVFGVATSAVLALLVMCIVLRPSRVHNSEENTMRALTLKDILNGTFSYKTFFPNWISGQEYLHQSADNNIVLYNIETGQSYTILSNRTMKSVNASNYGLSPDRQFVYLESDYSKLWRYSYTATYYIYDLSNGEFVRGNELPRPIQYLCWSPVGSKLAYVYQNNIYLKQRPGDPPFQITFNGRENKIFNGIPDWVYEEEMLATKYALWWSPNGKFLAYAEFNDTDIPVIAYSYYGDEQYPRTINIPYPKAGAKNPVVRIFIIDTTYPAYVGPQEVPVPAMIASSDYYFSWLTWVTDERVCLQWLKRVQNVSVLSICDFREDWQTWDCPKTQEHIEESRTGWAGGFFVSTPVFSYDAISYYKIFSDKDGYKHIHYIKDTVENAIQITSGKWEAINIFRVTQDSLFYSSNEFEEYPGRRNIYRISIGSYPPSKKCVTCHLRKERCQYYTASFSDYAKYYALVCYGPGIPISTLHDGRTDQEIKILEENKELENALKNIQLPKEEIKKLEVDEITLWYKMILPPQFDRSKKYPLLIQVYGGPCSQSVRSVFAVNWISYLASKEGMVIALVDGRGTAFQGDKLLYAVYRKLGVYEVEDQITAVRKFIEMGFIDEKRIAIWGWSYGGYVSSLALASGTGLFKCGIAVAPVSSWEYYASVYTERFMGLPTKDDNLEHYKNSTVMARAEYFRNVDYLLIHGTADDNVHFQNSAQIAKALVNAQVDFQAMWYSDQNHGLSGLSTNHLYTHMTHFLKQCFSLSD
The experiment in a line: Confocal binding studies of FAP-targeting ligand on HT1080-FAP cells. Type of experiment: cell-based. The method, then:
Method 1: HT1080-FAP cells ([…]) were seeded in 4-well confocal plates. The cells were allowed to grow as a monolayer over 24 h at 37° C. and were incubated with various concentrations of conjugate ranging from 3.0 nM (lowest) to 25 nM (highest) in 1% FBS in PBS for 1 h at 37° C. Cells were washed with 1% FBS (3×500 μL) and the cells were left in 500 μl of 1% FBS and images were acquired with confocal microscopy. Again, the PBS in cells was replaced with growth media and the cells were re-incubated at 37° C. for 8 to 48 h. Images acquired at different concentrations of the compound at 37° C. are shown in FIG. 3, at different time points are shown in FIG. 4, and with 100-fold excess of competition ligand are shown in FIG. 5.
Method 2: Human FAP-transfected HT1080-FAP cells were (100,000) were plated on 4-well confocal plates and incubated with different concentrations (50 nM, 25 nM, 12.5 nM, 6.25 nM, 3.125 nM and 1.65 nM) of the compound for 1 h at 37° C. The unbound fluorescence was removed by washing the cells 3× with medium, and cell-bound fluorescence was imaged using an Olympus confocal microscope. The experiment was done in triplicate.

The target in experiment [2] is T2, FAP (e.g., FAP5) on HEK-FAP cells (Homo sapiens, UniProt Q12884).
T2 construct: expressed in transfected cells; host or cells: HEK
T2 sequence (Q12884 1-760): T1 sequence (Q12884 1-760)
Kind of experiment: Displacement binding curves in HEK-FAP cells. Particulars: displacement binding (FIGS. 21-22), read-out: affinity for cells that express FAP.

For experiment [3], the target named is T3, FAP5 on HT1080-FAP (HT1080-hFAP) cells (Homo sapiens, UniProt Q12884).
T3 construct: expressed in transfected cells; host or cells: HT1080
T3 sequence (Q12884 1-760): T1 sequence (Q12884 1-760)
The experiment in a line: Binding assay (cell-bound fluorescence, apparent Kd) on HT1080-FAP cells. The method, then: Method 1: HT1080-FAP cells (200000 cells/well) were seeded in a 24-well plate. The cells were allowed to grow as a monolayer over 24 h and incubated with various concentrations of FAP-targeted rhodamine conjugate either in the presence or absence of excess competition ligand (ligand without dye). After incubating for 1 h at 4° C. the cells were washed 3× with PBS to remove unbound fluorescence. The cells were then dissolved in 1% SDS and the cell-bound fluorescence was measured using a Neo2 Plate Reader.
(§1) Method 2: 100,000 HT1080-hFAP and HT1080 cells were seeded in amine-coated 24-well plates to ensure cell adherence. Upon formation of a monolayer, cells were incubated with various concentrations of the compound in the presence or absence of excess of unlabeled ligand. After incubation for 1 h, the cells were washed 3× with medium to remove to unbound fluorescence and dissolved in 1% SDS. The cell-bound fluorescence was measured using a fluorescence spectrophotometer (NeO2 Plate reader) set with a λex=555 nm and λem=575 nm. Cell-bound fluorescence was plotted against various concentrations and the apparent Kd was determined by using one-site binding (hyperbola) curve fit in GraphPad prism7. The experiment was done in triplicate.

Experiment [4] has as its system HT1080 cells that do not express FAP5. The experiment in a line: Binding assay on HT1080 cells that do not express FAP5. Set-up: species or system human. Particulars: FIG. 8. The method, then: as §1

Consider `CN(C)c1ccc2c(c1)OC1=CC(=[N+](C)C)C=CC1C2c1ccc(C(=O)NCCOCCOCCOCCOCCC(=O)NCCNC(=O)c2ccc(-c3cn(Cc4cccc5c4CN(C(=O)C[C@@H]4C[C@@H](C(=O)N6CC(F)(F)C[C@H]6C#N)NC4=O)C5)nn3)cc2)cc1C(=O)O` (stereo partly drawn) [compound 1], for which the “time remaining localized and internalized to FAP5-expressing cells” value in experiment [1] (12.5 nM, e.g., 1 hour, 8 hours, 24 hours, or more (FIG. 4)) is recorded as “at least 1 hour”. In experiment [1] (HT1080-FAP cells, 50 nM, 25 nM, 12.5 nM, and 6.5 nM (FIG. 3)), the “localization to cells expressing FAP5 (confocal)” value is “localizes to cells”. For the same molecule, the results for the Kd in experiment [2] and in experiment [3] (cells expressing FAP5 (FIG. 7)) were 1 to 10 nM and 5 to 15 nM, respectively. Besides, the “binding to HT1080 cells expressing FAP5 in the presence of an unlabelled FAP5 ligand” value in experiment [3] (competitor e.g., compound 8, FIG. 8) was “does not bind”. Moreover, the “binding to HT1080 cells that do not express FAP5” value in experiment [4] was “does not bind”.

For the molecule `CN(C)c1ccc2c(-c3ccc(C(=O)NCCNC(=O)c4cccc5c4CN(C(=O)C[C@@H]4C[C@@H](C(=O)N6CC(F)(F)C[C@H]6C#N)NC4=O)C5)cc3C(=O)[O-])c3ccc(=[N+](C)C)cc-3oc2c1` [compound 5], in experiment [2], the Kd fell in the range of 1 to 10 nM.

As for `CN(C)c1ccc2c(-c3ccc(C(=O)NCCNC(=O)CCc4cccc5c4CN(C(=O)C[C@@H]4C[C@@H](C(=O)N6CC(F)(F)C[C@H]6C#N)NC4=O)C5)cc3C(=O)[O-])c3ccc(=[N+](C)C)cc-3oc2c1` [compound 6], the Kd in experiment [2] fell in the range of 1 to 10 nM.

As for `N#C[C@@H]1C[C@H](F)CN1C(=O)[C@@H]1C[C@@H](CC(=O)N2Cc3cccc(Cn4cc(-c5ccc(C(=O)NCCNC(=O)CCC(=O)O)cc5)nn4)c3C2)C(=O)N1` [compound 21], the Kd in experiment [2] lay in the range of 1 to 10 nM.
